The subject of the test is A. fum. In words: In vitro antifungal MIC, NCCLS M38P broth method in RPMI 1640/MOPS pH 7. In kind it is cell-based, Aspergillus fumigatus. Conditions: for MIC: Aspergillus fumigatus. An excerpt:
The in vitro evaluation of the antifungal activity of the compound of this invention (as shown in Table I) can be performed by determining the minimum inhibitory concentration (MIC) which is the concentration of the test compound in Rosewell Park Memorial Institute (RPMI) 1640 liquid medium buffered with 3-(Morpholino)propane sulfonic acid (MOPS) to pH 7, at which there is significant inhibition of the particular fungi. In practice the National Committee for Clinical Laboratory Standard (NCCLS) M27A document for Candida and Cryptococcus and M38P for Aspergillus was used to determine the MIC and readings recorded only when the Quality Control results fell into the acceptable range. After MIC results had been recorded, 100 μL from each of the well showing no growth was spread over Sabouraud Dextrose Agar (SDA) to determine the minimum fungicidal concentration (MFC).

[1] abbreviates: A. fumigatus strain 1008, RPMI 1640, MOPS pH 7, read-out: MIC (A. fum.) 1008.
[2] abbreviates: A. fumigatus strain Si-l, RPMI 1640, MOPS pH 7, read-out: MIC (A. fum.) Si-l.
The mark [3] stands for this setting: A. fumigatus strain 1008, RPMI 1640, MOPS pH 7.
Where [4] appears, read: A. fumigatus strain Si-l, RPMI 1640, MOPS pH 7.
[5] abbreviates: pH 7, read-out: MIC (A. fum.) 1008.
Setting [6] is: pH 7, read-out: MIC (A. fum.) Si-l.

In brackets after ≈: the same amount, converted by molar mass. Where two headings read alike, the source gives them in different places. Some results are limits rather than exact numbers.

`C[C@@H](N(NC(=O)OC(C)(C)C)C(=S)Nc1ccc(F)cc1)[C@](O)(Cn1cncn1)c1ccc(F)cc1F` [Compound No. 1]: the MIC (commonly the smallest concentration in the dilution series that meets the test's criterion for growth inhibition) under setting [1] is above 16 µg/mL and the MIC under setting [2] is above 16 µg/mL.
With `C[C@@H](N(N)C(=S)Nc1ccc(OCC(F)(F)C(F)F)cc1)[C@](O)(Cn1cncn1)c1ccc(F)cc1F` [Compound No. 31, 2-[(1R,2R)-2-(2,4-difluorophenyl)-2-hydroxy-1-methyl-3-(1H-1,2,4-triazol-1-yl)propyl]-4-[4-(2,2,3,3-tetrafluoropropoxy)phenyl]thiosemicarbazide], the MIC amounted to 1 µg/mL (≈ 1.82 µM) under setting [1] and 0.25 µg/mL (≈ 0.456 µM) under setting [2].
In the same order, the values of `C[C@@H](N(NC(=O)OC(C)(C)C)C(=S)Nc1ccc(-n2ncnn2)cc1)[C@](O)(Cn1cncn1)c1ccc(F)cc1F` [Compound No. 10, 1-t-Butoxycarbonyl-2-[(1R,2R)-2-(2,4-difluorophenyl)-2-hydroxy-1-methyl-3-(1H-1,2,4-triazol-1-yl)propyl]-4-[4-(1,2,3,4-tetrazol-2-yl)phenyl]thiosemicarbazide] are above 16 µg/mL and above 16 µg/mL.
Turning to `C[C@@H](N(N)C(=S)NCc1ccco1)[C@](O)(Cn1cncn1)c1ccc(F)cc1F` [Compound No. 35, 2-[(1R,2R)-2-(2,4-difluorophenyl)-2-hydroxy-1-methyl-3-(1H-1,2,4-triazol-1-yl)propyl]-4-[2-furanmethyl]thiosemicarbazide], under setting [3], the “MIC (A. fum.) 1008” value is 4 µg/mL (≈ 9.47 µM). In addition, under setting [4], the “MIC (A. fum.) Si-l” value worked out at 4 µg/mL (≈ 9.47 µM).
In the case of “1-t-Butoxycarbonyl-2-[(1R,2R)-2-(2,4-difluorophenyl)-2-hydroxy-1-methyl-3-(1H-1,2,4-triazol-1-yl)propyl]-4-[4-[4-chlorophenyl]piperizin-1-yl]phenyl]thiosemicarbazide [Compound No. 12]”, the “MIC (A. fum.) 1008” value under setting [3] worked out at 0.25 µg/mL. Moreover, the “MIC (A. fum.) Si-l” value under setting [4] amounted to 0.25 µg/mL.
`C[C@@H](N(NC(=O)OC(C)(C)C)C(=S)Nc1ccc(-n2cnnn2)cc1)[C@](O)(Cn1cncn1)c1ccc(F)cc1F` [Compound No. 9, 1-t-Butoxycarbonyl-2-[(1R,2R)-2-(2,4-difluorophenyl)-2-hydroxy-1-methyl-3-(1H-1,2,4-triazol-1-yl)propyl]-4-[4-([1,2,3,4-tetrazol-1-yl])phenyl]thiosemicarbazide]: the MIC was above 16 µg/mL under setting [1] and above 16 µg/mL under setting [2].
Regarding `C[C@@H](n1ncn(-c2ccc(OC(F)(F)F)cc2)c1=S)[C@](O)(Cn1cncn1)c1ccc(F)cc1F` [Compound No. 46, 2-[(1R,2R)-2-(2,4-Difluorophenyl)-2-hydroxy-1-methyl-3-(1H-1,2,4-triazol-1-yl)propyl]-4-[4-trifluoromethoxyphenyl]-(2H,4H)-1,2,4-triazol-3-thione], the MIC under setting [1] amounted to 2 µg/mL (≈ 3.9 µM) and the minimal inhibitory concentration (MIC) under setting [2] worked out at 0.5 µg/mL (≈ 0.976 µM).
Turning to `C[C@@H](n1ncn(Cc2ccco2)c1=S)[C@](O)(Cn1cncn1)c1ccc(F)cc1F` [Compound No. 53, 2-[(1R,2R)-2-(2,4-Difluorophenyl)-2-hydroxy-1-methyl-3-(1H-1,2,4-triazol-1-yl)propyl]-4-[2-furanmethyl]-(2H,4H)-1,2,4-triazol-3-thione], under setting [3], the “MIC (A. fum.) 1008” value is 8 µg/mL (≈ 18.5 µM). Besides, under setting [4], the “MIC (A. fum.) Si-l” value was determined as 4 µg/mL (≈ 9.25 µM).
For `C[C@@H](n1ncn(-c2ccc(C(F)(F)F)cc2)c1=S)[C@](O)(Cn1cncn1)c1ccc(F)cc1F` [Compound No. 45, 2-[(1R,2R)-2-(2,4-difluorophenyl)-2-hydroxy-1-methyl-3-(1,2,4-triazol-1-yl)propyl]-4-[4-trifluoromethylphenyl]-(2H,4H)-1,2,4-triazol-3-thione], the MIC stood at 1 µg/mL (≈ 2.01 µM) under setting [1] and 0.5 µg/mL (≈ 1.01 µM) under setting [2].
As to `C[C@@H](N(NC(=O)OC(C)(C)C)C(=O)Nc1ccc(Cl)cc1)[C@](O)(Cn1cncn1)c1ccc(F)cc1F` [Compound No. 25, 1-t-Butoxycarbonyl-2-[(1R,2R)-2-(2,4-difluorophenyl)-2-hydroxy-1-methyl-3-(1H-1,2,4-triazol-1-yl)propyl]-4-[4-chlorophenyl]semicarbazide], the MIC was above 16 µg/mL under setting [5] and above 16 µg/mL under setting [6].
Consider `C[C@@H](N(N)C(=S)Nc1ccc(O)cc1)[C@](O)(Cn1cncn1)c1ccc(F)cc1F` [Compound No. 30, 2-[(1R,2R)-2-(2,4-difluorophenyl)-2-hydroxy-1-methyl-3-(1H-1,2,4-triazol-1-yl)propyl]-4-[4-hydroxyphenyl]thiosemicarbazide], for which the MIC was above 16 µg/mL under setting [5] and above 16 µg/mL under setting [6].
On to `C[C@@H](N(NC(=O)OC(C)(C)C)C(=S)Nc1cccc2ccccc12)[C@](O)(Cn1cncn1)c1ccc(F)cc1F` [Compound No. 14], for which, under setting [3], the “MIC (A. fum.) 1008” value is above 16 µg/mL. The “MIC (A. fum.) Si-l” value under setting [4] was above 16 µg/mL.
With `C[C@@H](N(N)C(=S)Nc1cnc2ccccc2c1)[C@](O)(Cn1cncn1)c1ccc(F)cc1F` [Compound No. 39, 2-[(1R,2R)-2-(2,4-Difluorophenyl)-2-hydroxy-1-methyl-3-(1H-1,2,4-triazol-1-yl)propyl]-4-[quinolin-3-yl]thiosemicarbazide], the MIC was 16 µg/mL (≈ 34.1 µM) under setting [5] and 4 µg/mL (≈ 8.52 µM) under setting [6].
On to `C[C@@H](N(NC(=O)OC(C)(C)C)C(=S)Nc1ccc(F)cc1F)[C@](O)(Cn1cncn1)c1ccc(F)cc1F` [Compound No. 2, 1-t-Butoxycarbonyl-2-[(1R,2R)-2-(2,4-difluorophenyl)-2-hydroxy-1-methyl-3-(1H-1,2,4-triazol-1-yl)propyl]-4-[2,4-difluorophenyl]thiosemicarbazide], for which the minimal inhibitory concentration (MIC) is, setting by setting: under setting [1], above 16 µg/mL; under setting [2], above 16 µg/mL.
Turning to `COC(=O)C(c1ccccc1)n1cnn([C@H](C)[C@](O)(Cn2cncn2)c2ccc(F)cc2F)c1=S` (some centres unmarked) [Compound No. 50], the “MIC (A. fum.) 1008” value under setting [3] was above 16 µg/mL. Also, under setting [4], the “MIC (A. fum.) Si-l” value was above 16 µg/mL.
`COc1ccc(NC(=O)N(NC(=O)OC(C)(C)C)[C@H](C)[C@](O)(Cn2cncn2)c2ccc(F)cc2F)c(OC)c1` [Compound No. 27, 1-t-Butoxycarbonyl-2-[(1R,2R)-2-(2,4-difluorophenyl)-2-hydroxy-1-methyl-3-(1H-1,2,4-triazol-1-yl)propyl]-4-[2,4-dimethoxyphenyl]semicarbazide]: the MIC by setting is: under setting [1], above 16 µg/mL; under setting [2], above 16 µg/mL.
With `C[C@@H](N(NC(=O)OC(C)(C)C)C(=O)Nc1ccc(OCC(F)(F)C(F)F)cc1)[C@](O)(Cn1cncn1)c1ccc(F)cc1F` [Compound No. 26, 1-t-Butoxycarbonyl-2-[(1R,2R)-2-(2,4-difluorophenyl)-2-hydroxy-1-methyl-3-(1H-1,2,4-triazol-1-yl)propyl]-4-[4(2,2,3,3-tetrafluoropropoxy)phenyl]semicarbazide], the minimal inhibitory concentration (MIC) is above 16 µg/mL under setting [1] and above 16 µg/mL under setting [2].
Take `C[C@@H](n1ncn(-c2ccc(-n3ncnn3)cc2)c1=S)[C@](O)(Cn1cncn1)c1ccc(F)cc1F` [Compound No. 44]: the “MIC (A. fum.) 1008” value under setting [3] worked out at 2 µg/mL (≈ 4.03 µM). Moreover, under setting [4], the “MIC (A. fum.) Si-l” value was determined as 2 µg/mL (≈ 4.03 µM).
`C[C@@H](N(N)C(=S)NCc1cccs1)[C@](O)(Cn1cncn1)c1ccc(F)cc1F` [Compound No. 36, 2-[(1R,2R)-2-(2,4-difluorophenyl)-2-hydroxy-1-methyl-3-(1H-1,2,4-triazol-1-yl)propyl]-4-[2-thiophenmethyl]thiosemicarbazide]: the “MIC (A. fum.) 1008” value under setting [3] is 4 µg/mL (≈ 9.12 µM). Besides, the “MIC (A. fum.) Si-l” value under setting [4] is 2 µg/mL (≈ 4.56 µM).

The record behind these values is US20060178415A1, “Azole derivatives as antifungal agents” (priority 2002, published 2006).
